# From PubChem BioAssay AID2060508 (Molecular Pharmacology Branch, DTP, NCI, 2025)
# Tested on: 454973-116-R2-J3-PDC spheroids, viability, % test/control
# Assay: Anticancer human tumor 454973-116-R2-J3-PDC patient-derived pancreatic carcinoma cell line growth inhibition [GQUAD]
# Details: spheroids with HUVEC and MSC; for IC50: curve of first compound; for viability, T/C: stronger effect = lower value
# How it was run: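 Tumor cells were grown as complex spheroids with HUVEC endothelial cells and mesenchymal stem cells as stroma. G-quadruplex stabilizers were combined with targeted agents over half-log dilutions from near the clinical Cmax, or from 10 microM.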
# [1] = second compound 0.0316 µM, first compound 0.0316 µM
# [2] = second compound 0.0316 µM, first compound 0.1 µM
# [3] = second compound 0.0316 µM, first compound 0.316 µM
# [4] = second compound 0.0316 µM, first compound 1 µM
# [5] = second compound 0.0316 µM, first compound 3.16 µM
# [6] = second compound 0.0316 µM, first compound 10 µM
# [7] = second compound 0.1 µM, first compound 0.0316 µM
# [8] = second compound 0.1 µM, first compound 0.1 µM
# [9] = second compound 0.1 µM, first compound 0.316 µM
# [10] = second compound 0.1 µM, first compound 1 µM
# [11] = second compound 0.1 µM, first compound 3.16 µM
# [12] = second compound 0.1 µM, first compound 10 µM
# [13] = second compound 0.316 µM, first compound 0.0316 µM
# [14] = second compound 0.316 µM, first compound 0.1 µM
# [15] = second compound 0.316 µM, first compound 0.316 µM
# [16] = second compound 0.316 µM, first compound 1 µM
# [17] = second compound 0.316 µM, first compound 3.16 µM
# [18] = second compound 0.316 µM, first compound 10 µM
# [19] = second compound 1 µM, first compound 0.0316 µM
# [20] = second compound 1 µM, first compound 0.1 µM
# [21] = second compound 1 µM, first compound 0.316 µM
# [22] = second compound 1 µM, first compound 1 µM
# [23] = second compound 1 µM, first compound 3.16 µM
# [24] = second compound 1 µM, first compound 10 µM
# [25] = second compound 3.16 µM, first compound 0.0316 µM
# [26] = second compound 3.16 µM, first compound 0.1 µM
# [27] = second compound 3.16 µM, first compound 0.316 µM
# [28] = second compound 3.16 µM, first compound 1 µM
# [29] = second compound 3.16 µM, first compound 3.16 µM
# [30] = second compound 3.16 µM, first compound 10 µM
# [31] = second compound 10 µM, first compound 0.0316 µM
# [32] = second compound 10 µM, first compound 0.1 µM
# [33] = second compound 10 µM, first compound 0.316 µM
# [34] = second compound 10 µM, first compound 1 µM
# [35] = second compound 10 µM, first compound 3.16 µM
# [36] = second compound 10 µM, first compound 10 µM
# 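Note: spheroids exposed to compounds for seven days.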
# 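Throughout, for viability, T/C: 100% = DMSO vehicle control viability.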
structure (smiles),measurement,setting,value
C=CC(=O)N1CCN(c2nc(=O)n(-c3c(C)ccnc3C(C)C)c3nc(-c4c(O)cccc4F)c(F)cc23)C(C)C1 (stereo unspecified) + Cc1[nH]c2ccc(F)cc2c1-c1nc2c3cccnc3c3ncccc3c2[nH]1,IC50,second compound 0.0316 µM,> 10000 nM
same,IC50,second compound 0.1 µM,> 10000 nM
same,IC50,second compound 0.316 µM,> 10000 nM
same,IC50,second compound 1 µM,> 10000 nM
same,IC50,second compound 3.16 µM,> 10000 nM
same,IC50,second compound 10 µM,> 10000 nM
same,"viability, T/C",[1],110%
same,"viability, T/C",[2],107%
same,"viability, T/C",[3],115%
same,"viability, T/C",[4],109%
same,"viability, T/C",[5],113%
same,"viability, T/C",[6],114%
same,"viability, T/C",[7],100%
same,"viability, T/C",[8],102%
same,"viability, T/C",[9],114%
same,"viability, T/C",[10],108%
same,"viability, T/C",[11],125%
same,"viability, T/C",[12],109%
same,"viability, T/C",[13],103%
same,"viability, T/C",[14],111%
same,"viability, T/C",[15],107%
same,"viability, T/C",[16],100%
same,"viability, T/C",[17],119%
same,"viability, T/C",[18],113%
same,"viability, T/C",[19],107%
same,"viability, T/C",[20],97%
same,"viability, T/C",[21],112%
same,"viability, T/C",[22],103%
same,"viability, T/C",[23],114%
same,"viability, T/C",[24],123%
same,"viability, T/C",[25],96.2%
same,"viability, T/C",[26],95.3%
same,"viability, T/C",[27],96.4%
same,"viability, T/C",[28],111%
same,"viability, T/C",[29],113%
same,"viability, T/C",[30],107%
same,"viability, T/C",[31],93.8%
same,"viability, T/C",[32],81.8%
same,"viability, T/C",[33],104%
same,"viability, T/C",[34],92.8%
same,"viability, T/C",[35],89.6%
same,"viability, T/C",[36],83.6%
Cc1[nH]c2ccccc2c1CCNCc1ccc(/C=C/C(=O)NO)cc1 + CN(C)c1ccc(Nc2c3ccc(NC(=O)CCN4CCCC4)cc3nc3cc(NC(=O)CCN4CCCC4)ccc23)cc1,IC50,second compound 0.0316 µM,72.5 nM
same,IC50,second compound 0.1 µM,66.8 nM
same,IC50,second compound 0.316 µM,56.3 nM
same,IC50,second compound 1 µM,48.8 nM
same,IC50,second compound 3.16 µM,53.2 nM
same,IC50,second compound 10 µM,35.4 nM
same,"viability, T/C","second compound 0.0316 µM, first compound 0.000999 µM",104%
same,"viability, T/C","second compound 0.0316 µM, first compound 0.00316 µM",102%
same,"viability, T/C","second compound 0.0316 µM, first compound 0.00999 µM",106%
same,"viability, T/C",[1],83.2%
same,"viability, T/C","second compound 0.0316 µM, first compound 0.0999 µM",37.1%
same,"viability, T/C",[3],6.62%
same,"viability, T/C","second compound 0.1 µM, first compound 0.000999 µM",107%
same,"viability, T/C","second compound 0.1 µM, first compound 0.00316 µM",96.7%
same,"viability, T/C","second compound 0.1 µM, first compound 0.00999 µM",92.8%
same,"viability, T/C",[7],89.5%
same,"viability, T/C","second compound 0.1 µM, first compound 0.0999 µM",28.9%
same,"viability, T/C",[9],6.22%
same,"viability, T/C","second compound 0.316 µM, first compound 0.000999 µM",93.8%
same,"viability, T/C","second compound 0.316 µM, first compound 0.00316 µM",93.3%
same,"viability, T/C","second compound 0.316 µM, first compound 0.00999 µM",99.2%
same,"viability, T/C",[13],68.7%
same,"viability, T/C","second compound 0.316 µM, first compound 0.0999 µM",30.2%
same,"viability, T/C",[15],6.88%
same,"viability, T/C","second compound 1 µM, first compound 0.000999 µM",96.8%
same,"viability, T/C","second compound 1 µM, first compound 0.00316 µM",92.5%
same,"viability, T/C","second compound 1 µM, first compound 0.00999 µM",92.3%
same,"viability, T/C",[19],65.1%
same,"viability, T/C","second compound 1 µM, first compound 0.0999 µM",24.5%
same,"viability, T/C",[21],8.83%
same,"viability, T/C","second compound 3.16 µM, first compound 0.000999 µM",90.1%
same,"viability, T/C","second compound 3.16 µM, first compound 0.00316 µM",86.7%
same,"viability, T/C","second compound 3.16 µM, first compound 0.00999 µM",82.1%
same,"viability, T/C",[25],70.3%
same,"viability, T/C","second compound 3.16 µM, first compound 0.0999 µM",26.2%
same,"viability, T/C",[27],7.17%
same,"viability, T/C","second compound 10 µM, first compound 0.000999 µM",68%
same,"viability, T/C","second compound 10 µM, first compound 0.00316 µM",70.9%
same,"viability, T/C","second compound 10 µM, first compound 0.00999 µM",65.6%
same,"viability, T/C",[31],51.8%
same,"viability, T/C","second compound 10 µM, first compound 0.0999 µM",27.1%
same,"viability, T/C",[33],4.66%
O=C(NO)c1cnc(N2CCN(S(=O)(=O)c3ccc4ccccc4c3)CC2)nc1 + CN(C)c1ccc(Nc2c3ccc(NC(=O)CCN4CCCC4)cc3nc3cc(NC(=O)CCN4CCCC4)ccc23)cc1,IC50,second compound 0.0316 µM,212 nM
same,IC50,second compound 0.1 µM,202 nM
same,IC50,second compound 0.316 µM,197 nM
same,IC50,second compound 1 µM,195 nM
same,IC50,second compound 3.16 µM,178 nM
same,IC50,second compound 10 µM,141 nM
same,"viability, T/C",[1],107%
same,"viability, T/C",[2],89.7%
same,"viability, T/C",[3],28.9%
same,"viability, T/C",[4],3.06%
same,"viability, T/C",[5],0.12%
same,"viability, T/C",[6],1%
same,"viability, T/C",[7],102%
same,"viability, T/C",[8],83.4%
same,"viability, T/C",[9],28.9%
same,"viability, T/C",[10],2.6%
same,"viability, T/C",[11],0.1%
same,"viability, T/C",[12],0.19%
same,"viability, T/C",[13],86%
same,"viability, T/C",[14],83.4%
same,"viability, T/C",[15],26.8%
same,"viability, T/C",[16],3.25%
same,"viability, T/C",[17],0.11%
same,"viability, T/C",[18],0.17%
same,"viability, T/C",[19],81.4%
same,"viability, T/C",[20],77.2%
same,"viability, T/C",[21],30.3%
same,"viability, T/C",[22],3.47%
same,"viability, T/C",[23],0.09%
same,"viability, T/C",[24],0.35%
same,"viability, T/C",[25],77.8%
same,"viability, T/C",[26],70.8%
same,"viability, T/C",[27],29.4%
same,"viability, T/C",[28],2.84%
same,"viability, T/C",[29],0.54%
same,"viability, T/C",[30],0.91%
same,"viability, T/C",[31],59.5%
same,"viability, T/C",[32],55.8%
same,"viability, T/C",[33],34.1%
same,"viability, T/C",[34],2.57%
same,"viability, T/C",[35],0.19%
same,"viability, T/C",[36],0.77%
